Laboratory results taken from patent publication US20180071317A1, “USE OF AGENTS THAT ALTER THE PERITUMORAL ENVIRONMENT FOR THE TREATMENT OF CANCER” (SERVICIO ANDALUZ DE SALUD, priority 2011, published 2018).

Experiments:
[1] = test system: fibroblasts (PHF) co-cultured with tumor cells of human gastric adenocarcinoma (23132/87); experiment: Marker expression (IHC) in PHF co-cultured with 23132/87 tumor cells; type: cell-based; conditions: co-culture with 23132/87; SP 1 μM + antagonist 1 μM; 48 h;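 also: cultures grown in fresh plasma from a healthy human donor, values give the percentage of PHF fibroblasts positive for the marker, each experiment run in six replicates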
Procedure: (§1) All cultures were maintained 48 hours, following which the same cells were included in paraffin blocks for subsequent analysis of the expression of different markers by immunohistochemistry (see Example 1). The primary antibodies used to perform immunohistochemical assays and their concentration are detailed in Example 2. All experiments were carried out sixfold. Analyzed markers in fibroblast cells (stromal cells) were: TGF-α, TGF-β1, TGF-β2, TGF-β3, SPARC, MMP-3, MMP-7, MMP-9, MMP-11, MMP-13 and MMP-14.

[2] = test system: fibroblasts (PHF) co-cultured with tumor cells of human pancreatic adenocarcinoma (CAPAN-1); experiment: Marker expression (IHC) in PHF co-cultured with CAPAN-1 tumor cells; type: cell-based; conditions: co-culture with CAPAN-1; SP 1 μM + antagonist 1 μM; 48 h;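 also: cultures grown in fresh plasma from a healthy human donor, run in six replicates, value is percent of fibroblasts positive for each marker, compared with fibroblasts cultured alone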
Procedure: as §1

[3] = test system: fibroblasts (PHF) co-cultured with tumor cells of lung carcinoma (A-427); experiment: Marker expression (IHC) in PHF co-cultured with A-427 tumor cells; type: cell-based, human; conditions: co-culture with A-427 lung carcinoma; SP 1 μM + antagonist 1 μM; 48 h;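 also: cultures grown in human blood plasma from a healthy donor, value is the percentage of fibroblasts positive for each marker, six replicates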
Procedure: (§2) All cultures were maintained 48 hours, following which the same cells were included in paraffin blocks for subsequent analysis of the expression of different markers by immunohistochemistry (see Example 1). […] All experiments were carried out sixfold. Analyzed markers in fibroblast cells (stromal cells) were: TGF-α, TGF-β1, TGF-β2, TGF-β3, SPARC, MMP-3, MMP-7, MMP-9, MMP-11, MMP-13 and MMP-14.

[4] = test system: fibroblasts (PHF) co-cultured with human fibrosarcoma tumor cells (HT-1080); experiment: Marker expression (IHC) in PHF co-cultured with HT-1080 tumor cells; type: cell-based; conditions: co-culture with HT-1080; SP 1 μM + antagonist 1 μM; 48 h;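 also: cultures grown in fresh human plasma from a healthy donor, six replicates, value is percent of fibroblasts positive for the marker, compared with fibroblasts cultured without tumor cells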
Procedure: as §2

[5] = test system: fibroblasts (PHF) co-cultured with tumor cells of human Edwing sarcoma (MHH-ES-1); experiment: Marker expression (IHC) in PHF co-cultured with MHH-ES-1 tumor cells; type: cell-based; conditions: PHF co-cultured with MHH-ES-1 + SP + NK1 antagonist
Procedure: as §2

[6] = test system: fibroblasts (PHF) co-cultured with tumor cells of human Burkitt lymphoma (CA-46); experiment: Marker expression (IHC) in PHF co-cultured with CA-46 tumor cells; type: cell-based; conditions: PHF co-cultured with CA-46 + SP + NK1 antagonist;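 also: percentage of PHF fibroblasts positive for each marker, cultures grown in fresh human plasma from a healthy donor, six replicates, compared with fibroblasts cultured alone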
[7] = test system: tumors from the tumor cell lines of Table 9; experiment: Mean tumor volume in nude mice injected subcutaneously with human tumor cells; conditions: 30 mg/kg/day oral, 7 days

## Cc1cc(F)ccc1[C@H]1CNCCN1C(=O)N(C)[C@H](C)c1cc(C(F)(F)F)cc(C(F)(F)F)c1 [Vestipitant]
[1]
  PHF cells expressing MMP-3: 0%
  PHF cells expressing MMP-7: 0%
  PHF cells expressing MMP-9: 0%
  PHF cells expressing MMP-11: 0%
  PHF cells expressing MMP-13: 0%
  PHF cells expressing MMP-14: 0%
  PHF cells expressing SPARC: 0%
  PHF cells expressing TGF-α: 0%
  PHF cells expressing TGF-β1: 0%
  PHF cells expressing TGF-β2: 0%
  PHF cells expressing TGF-β3: 0%
[2]
  PHF cells expressing MMP-3: 0%
  PHF cells expressing MMP-7: 0%
  PHF cells expressing MMP-9: 0%
  PHF cells expressing MMP-11: 0%
  PHF cells expressing MMP-13: 0%
  PHF cells expressing MMP-14: 0%
  PHF cells expressing SPARC: 0%
  PHF cells expressing TGF-α: 0%
  PHF cells expressing TGF-β1: 0%
  PHF cells expressing TGF-β2: 0%
  PHF cells expressing TGF-β3: 0%
[3]
  PHF cells expressing MMP-3: 0%
  PHF cells expressing MMP-7: 0%
  PHF cells expressing MMP-9: 0%
  PHF cells expressing MMP-11: 0%
  PHF cells expressing MMP-13: 0%
  PHF cells expressing MMP-14: 0%
  PHF cells expressing SPARC: 0%
  PHF cells expressing TGF-α: 0%
  PHF cells expressing TGF-β1: 0%
  PHF cells expressing TGF-β2: 0%
  PHF cells expressing TGF-β3: 0%
[4]
  PHF cells expressing MMP-3: 0%
  PHF cells expressing MMP-7: 0%
  PHF cells expressing MMP-9: 0%
  PHF cells expressing MMP-11: 0%
  PHF cells expressing MMP-13: 0%
  PHF cells expressing MMP-14: 0%
  PHF cells expressing SPARC: 0%
  PHF cells expressing TGF-α: 0%
  PHF cells expressing TGF-β1: 0%
  PHF cells expressing TGF-β2: 0%
  PHF cells expressing TGF-β3: 0%
[5]
  cells expressing MMP-3: 0%
  cells expressing MMP-7: 0%
  cells expressing MMP-9: 0%
  cells expressing MMP-11: 0%
  cells expressing MMP-13: 0%
  cells expressing MMP-14: 0%
  cells expressing SPARC: 0%
  cells expressing TGF-α: 0%
  cells expressing TGF-β1: 0%
  cells expressing TGF-β2: 0%
  cells expressing TGF-β3: 0%
[6]
  cells expressing MMP-3: 0%
  cells expressing MMP-7: 0%
  cells expressing MMP-9: 0%
  cells expressing MMP-11: 0%
  cells expressing MMP-13: 0%
  cells expressing MMP-14: 0%
  cells expressing SPARC: 0%
  cells expressing TGF-α: 0%
  cells expressing TGF-β1: 0%
  cells expressing TGF-β2: 0%
  cells expressing TGF-β3: 0%
[7]; B lymphoblastic leukemia (peripheral human B lymphoblastoid cells) SD1
  Mean tumor volume: 112 ± 8
[7]; Carcinoma of human non-small cell lung COR-L23
  Mean tumor volume: 111 ± 3
[7]; Carcinoma of human non-small cell lung H-1963
  Mean tumor volume: 101 ± 6
[7]; Carcinoma of human non-small cell lung HCC-44
  Mean tumor volume: 100 ± 4
[7]; Carcinoma of human small cell lung H-209
  Mean tumor volume: 113 ± 5
[7]; Carcinoma of human urinary bladder 5637
  Mean tumor volume: 112 ± 3
[7]; Human B lymphoma BC-1
  Mean tumor volume: 101 ± 9
[7]; Human Burkitt lymphoma CA-46
  Mean tumor volume: 100 ± 19
[7]; Human Fibrosarcoma HT-1080
  Mean tumor volume: 112 ± 4
[7]; Human Hodgkin lymphoma KM-H2
  Mean tumor volume: 99 ± 8
[7]; Human Rhabdomyosarcoma A-204
  Mean tumor volume: 97 ± 9
[7]; Human T-cell leukemia/NK YT
  Mean tumor volume: 101 ± 3
[7]; Human T-lymphoma DERL human Hodgkin 7Linfoma KM-H2
  Mean tumor volume: 90 ± 9
[7]; Human breast adenocarcinoma humano MCF-7
  Mean tumor volume: 78 ± 7
[7]; Human breast carcinoma MDA-MB-468
  Mean tumor volume: 84 ± 7
[7]; Human breast carcinoma MT-3
  Mean tumor volume: 78 ± 8
[7]; Human choriocarcinoma AC-1M32
  Mean tumor volume: 88 ± 8
[7]; Human colon carcinoma SW-403
  Mean tumor volume: 78 ± 2
[7]; Human endometrial carcinoma AN3-CA
  Mean tumor volume: 89 ± 1
[7]; Human endometrial stromal sarcoma ESS-1
  Mean tumor volume: 99 ± 3
[7]; Human folicular thyroid carcinoma TT2609-C02
  Mean tumor volume: 100 ± 4
[7]; Human gastric adenocarcinoma 23132/87
  Mean tumor volume: 63 ± 8
[7]; Human glioma GAMG
  Mean tumor volume: 101 ± 4
[7]; Human lung carcinoma A-427
  Mean tumor volume: 98 ± 10
[7]; Human lung carcinoma DV-90
  Mean tumor volume: 136 ± 10
[7]; Human lymphoblastic leukemia T BE-13
  Mean tumor volume: 111 ± 4
[7]; Human malignant fibrous histiocytoma U-2197
  Mean tumor volume: 95 ± 8
[7]; Human melanoma MEL HO
  Mean tumor volume: 102 ± 4
[7]; Human multiple myeloma COLO-677
  Mean tumor volume: 101 ± 4
[7]; Human neuroblastoma KELLY
  Mean tumor volume: 121 ± 4
[7]; Human neuroblastoma bone marrow SKN-BE 2
  Mean tumor volume: 101 ± 7
[7]; Human osteosarcoma CAL-72
  Mean tumor volume: 104 ± 9
[7]; Human ovarian adenocarcinoma EFO-27
  Mean tumor volume: 63 ± 7
[7]; Human ovarian carcinoma COLO-704
  Mean tumor volume: 78 ± 8
[7]; Human pancretic adenocarcinoma CAPAN-1
  Mean tumor volume: 85 ± 8
[7]; Human pancretic adenocarcinoma PA-TU 8902
  Mean tumor volume: 91 ± 6
[7]; Human papillary thyroid carcinoma metastasizing B-CPAP
  Mean tumor volume: 102 ± 2
[7]; Human prostate carcinoma 22RV1
  Mean tumor volume: 98 ± 2
[7]; Human retinoblastoma WERI-Rb-1
  Mean tumor volume: 112 ± 8
[7]; Human thyroid carcinoma 8505C
  Mean tumor volume: 98 ± 9
[7]; Human uterine cervix carcinoma KB
  Mean tumor volume: 89 ± 1
[7]; Melanoma humano, metástasis en ganglio linfático COLO 858
  Mean tumor volume: 110 ± 4
[7]; Sarcoma human Edwing MHH-ES-1
  Mean tumor volume: 115 ± 3
[7]; Transitional Carcinoma of human urinary bladder RT-4
  Mean tumor volume: 120 ± 3
